Laboratory results: patent US20240132511A1, “TREATMENTS OF PRADER-WILLI SYNDROME” (Neuren Pharmaceuticals Limited, priority 2021, published 2024)

Experiments:
Assay type in all cases: in vivo, mouse
Magel2-null mice [1] = test: Nest building quality; parameters: key: **** = p < 0.0001; ns = not significant
Description: (§1) The mouse locus 7qB4/B5 (syntenic with the Prader-Willi region at chromosome position 15q11-q13 in humans) encompasses the cluster of paternally-expressed imprinted genes Magel2, Ndn, Mkrn3, and Peg12. As maternal imprinting silences the Magel2 allele, only the paternally inherited Magel2 allele is expressed. Heterozygous females were bred with wild-type males (or C57BL/6J inbred males) to maintain the line; as the resulting offspring will have no abnormal phenotype. To obtain “Magel2-null” offspring (both maternal and paternal Magel2 alleles are non-functional), wild-type females are bred with heterozygous males; allowing maternal transmission of the imprinted/silenced wild-type allele and paternal transmission of the Magel2-lacZ (null) allele. Magel2-null mice have disrupted circadian rhythm and metabolism, total activity, food consumption, weight before weaning, and fertility in both sexes, as well as increased adiposity after weaning and altered behavior. Magel2-null mice on this C57BL/6J genetic background recapitulate Prader-Willi syndrome. Because the genetic mutation in the Magel2-null animals is the same as the mutation in human beings, studies in Magel2-null mice are reasonably predictive of effects of compounds in human beings.
(§2) In vivo experiments were conducted in C57BL/6-Magel2tm1Stw/J (Magel2-null) mice at age P60 and their wild-type littermates during the light phase (littermates that were wild-type for Magel2 were used as controls). Ten mice per treatment group were used for studies 1 and 2, and six mice per group for study 3. In study 1: C57BL/6-Magel2tm1Stw/J (Magel2-null) mice were assessed on behavioral assays. Study 2 tested the efficacy of cG-2-AllylP in treating obesity and insulin levels in Magel2-null mice. Study 3 tested the IGF-1 level in Magel2-null mice. Because human beings have the same genetic abnormality, studies of Magel2-null mice are reasonably predictive of effects of compounds of Formulas I, II, III and IV in human beings with Prader-Willi Syndrome.
(§3) Testing was performed during the light phase of the circadian cycle, with the order of testing being determined by the principle of conducting the most stressful tests last. Assays were designed to reproduce and expand on the original behavioral characterization of Magel2-null mice. Magel2-null and wild-type control mice were dosed once daily for 6 weeks prior to testing and tested 30 minutes following a dose of cG-2-AllylP (NNZ2591). Study groups and the treatment matrix are described in Table 2 below.
For small rodents, nests are important in heat conservation as well as reproduction and shelter. Nest building is an activity needed for mice to raise their offspring and is an indicator of social adaptation and activities of daily living. Typically, changes in nesting behaviors, such as failure to create a nest, indicate a change in health or welfare. Nesting behavior is sensitive to many genetic mutations underlying pathological disease states.
Nesting behavior is impaired in Magel2-null mice. Therefore, to determine if cG-2-AllylP might restore the quality of nest building, a series of studies were carried out.

Magel2-null mice [2] = test: Insulin levels in female Magel2-null mice; parameters: key to Insulin, significance: **** = p < 0.0001; ns = not significant
Protocol: as §2, §3
Prader-Willi Syndrome is associated with metabolic and hormonal abnormalities in humans. Magel2-null mice recapitulate some of the metabolic and hormonal aspects of humans with Prader-Willi Syndrome. Experiments were conducted to determine if cG-2-AllylP could have a normalizing effect in metabolic and hormonal aspects.
Because female Magel2-null mice present a significant increase in body weight compared with their littermate wild-type controls, female Magel2-null mice were used for this study.
Insulin was measured for each group.

Magel2-null mice [3] = test: Sniffing test of social interaction; parameters: key: **** = p < 0.0001; ns = not significant
Description: as §1, §2, §3
People with Prader-Willi Syndrome show deficits in social behavior compared with people without Prader-Willi Syndrome. Two tests were carried out to assess the social behavior deficits of Magel2-null mice.
The sniffing test of social interaction measures the number of sniffing events.

Magel2-null mice [4] = test: Elevated Plus Maze (time in open arms); parameters: key: **** = p < 0.0001; ns = not significant
Description: as §1, §2, §3
The Elevated Plus Maze test is used to assess anxiety related behaviors. Normal mice show a preference for being in closed arms over open arms.

[5] = Magel2-null + NNZ2591 (100 mg/kg) vs. Magel2-null + NNZ2591 (200 mg/kg)
[6] = Magel2-null + Vehicle vs. Magel2-null + NNZ2591 (100 mg/kg)
[7] = Magel2-null + Vehicle vs. Magel2-null + NNZ2591 (200 mg/kg)
[8] = WT + NNZ2591 (100 mg/kg) vs. Magel2-null + NNZ2591 (100 mg/kg)
[9] = WT + NNZ2591 (200 mg/kg) vs. Magel2-null + NNZ2591 (200 mg/kg)
[10] = WT + Vehicle vs. WT + NNZ2591 (200 mg/kg)
[11] = Magel2-null + NNZ2591 200 mg/kg

## C=CCC12CCCN1C(=O)CNC2=O [cG-2-AllylP, (8aS)-Allyl-hexahydropyrrolo[1,2-a]pyrazine-1,4-dione]
Magel2-null mice [1]; [5]
  Nesting, Sidak's multiple comparisons test, Summary: ns
Magel2-null mice [1]; [6]
  Nesting, Sidak's multiple comparisons test, Summary: **** (**** = p < 0.00001.)
Magel2-null mice [1]; [7]
  Nesting, Sidak's multiple comparisons test, Summary: **** (**** = p < 0.00001.)
Magel2-null mice [1]; [8]
  Nesting, Sidak's multiple comparisons test, Summary: ns
Magel2-null mice [1]; [9]
  Nesting, Sidak's multiple comparisons test, Summary: ns
Magel2-null mice [1]; WT + Vehicle vs. WT + NNZ2591 (100 mg/kg)
  Nesting, Sidak's multiple comparisons test, Summary: ns
Magel2-null mice [1]; [10]
  Nesting, Sidak's multiple comparisons test, Summary: ns
Magel2-null mice [2]; Magel2-null + NNZ2591 100 mg/kg
  Insulin (mean ± SEM): 143 pM
Magel2-null mice [2]; [11]
  Insulin (mean ± SEM): 119 pM
  Insulin, significance: (ns)
Magel2-null mice [2]; WT + NNZ2591 100 mg/kg
  Insulin (mean ± SEM): 112 pM
Magel2-null mice [2]; WT + NNZ2591 200 mg/kg
  Insulin (mean ± SEM): 115 pM
Magel2-null mice [3]; [5]
  Social interaction, Sidak's multiple comparisons test, Summary: ns
Magel2-null mice [3]; [6]
  Social interaction, Sidak's multiple comparisons test, Summary: **** (**** = p < 0.0001)
Magel2-null mice [3]; [7]
  Social interaction, Sidak's multiple comparisons test, Summary: **** (**** = p < 0.0001)
Magel2-null mice [3]; [8]
  Social interaction, Sidak's multiple comparisons test, Summary: ns
Magel2-null mice [3]; [9]
  Social interaction, Sidak's multiple comparisons test, Summary: ns
Magel2-null mice [3]; WT + Vehicle v. WT + NNZ2591 (100 mg/kg)
  Social interaction, Sidak's multiple comparisons test, Summary: ns
Magel2-null mice [3]; [10]
  Social interaction, Sidak's multiple comparisons test, Summary: ns
Magel2-null mice [4]; [6]
  Elevated plus maze (time in open arm), Sidak's multiple comparisons test, Summary: **** (**** = p < 0.0001)
Magel2-null mice [4]; [7]
  Elevated plus maze (time in open arm), Sidak's multiple comparisons test, Summary: **** (**** = p < 0.0001)
Magel2-null mice [4]; [8]
  Elevated plus maze (time in open arm), Sidak's multiple comparisons test, Summary: ns
Magel2-null mice [4]; [9]
  Elevated plus maze (time in open arm), Sidak's multiple comparisons test, Summary: ns
Magel2-null mice [4]; WT + Vehicle vs WT + NNZ2591 (100 mg/kg)
  Elevated plus maze (time in open arm), Sidak's multiple comparisons test, Summary: ns
Magel2-null mice [4]; [10]
  Elevated plus maze (time in open arm), Sidak's multiple comparisons test, Summary: ns
